Positions of bridges follow the written chain, without caps; N, C: chain ends. Non-standard residues stand in square brackets, D forms with d. Residues, ends and D or L forms follow the SMILES beside them. *: point of attachment. 5FAM = O=C1OC2(c3ccc(O)cc3Oc3cc(O)ccc32)c2ccc(C(=O)*)cc21; βAla = NCCC(=O)O
Test system: TmrAB
Procedure: In order to analyze the binding affinity and specificity of CPs to TmrAB, we established a fluorescence polarization assay. Fluorescein-labeled CP^Fs were incubated with increasing concentrations of TmrAB reconstituted in liposomes at a protein-to-lipid ratio of 1:20 (w/w). […] To address whether the CPs recognize a linear or non-linear epitope, we examined the binding of CP^Fs after disrupting the quaternary and tertiary structure of TmrAB complexes by adding anionic detergent SDS.
Figure 2. […] (A, B) Equilibrium binding analysis. Fluorescence anisotropy of CP^Fs (50 nM) was determined at λex/em = 485/520 nm with increasing concentrations of TmrAB which was reconstituted in liposomes. TmrAB concentrations were calculated based on the random (50/50%) orientation in proteoliposomes ([Stefan et al., 2020]). […] The difference in fluorescence polarization was normalized to free (0%) and 100% bound CP^F. Mean values ± SD (n = 3) are shown, and data were analyzed by a one-site binding model. […] Amounts of TmrA in input (I), flow-through (FT), wash fraction (W), and eluate (E) were analyzed by SDS-PAGE and immunoblotting (α-His). […] Bound TmrAB was eluted in SDS loading buffer and analyzed by SDS-PAGE (silver stain). […] TmrAB in input (I), flow-through (FT), washing fraction (W), and eluate (E) was analyzed by SDS-PAGE and immunoblotting (α-His). […] CP^F-TmrAB complexes were analyzed by gel filtration. […]

Row | Compound | Isolation of TmrAB from solubilized E. coli membranes
1 | CC(C)[C@@H]1NC(=O)[C@H](Cc2ccccc2)NC(=O)[C@@H]2CCCN2C(=O)[C@H](CC(N)=O)NC(=O)[C@H](Cc2c[nH]c3ccccc23)NC(=O)[C@H](C(C)C)NC(=O)[C@H](Cc2ccc(O)cc2)NC(=O)[C@H](Cc2ccccc2)NC(=O)[C@@H](Cc2ccc(O)cc2)NC(=O)CSC[C@@H](C(=O)NCC(=O)N[C@@H](CO)C(=O)NCCC(=O)NCCC(=O)N[C@@H](CCCNC(=N)N)C(=O)N[C@@H](CCCCNC(=O)c2ccc3c(c2)C(=O)OC32c3ccc(O)cc3Oc3cc(O)ccc32)C(N)=O)NC(=O)[C@H](CCCCN)NC(=O)[C@H](Cc2ccccc2)NC1=O [CP14] ({CH2CO}-[dY]FYVWNPFVFKCGS[βAla][βAla]RK(5FAM)-NH2; thioether N-12; C-terminus assumed) | isolate intact TmrAB complexes
2 | CC[C@H](C)[C@@H]1NC(=O)[C@H](Cc2c[nH]c3ccccc23)NC(=O)[C@H](CC(N)=O)NC(=O)[C@H](C)NC(=O)[C@H](CO)NC(=O)[C@@H]2CCCN2C(=O)[C@H](CC(=O)O)NC(=O)[C@@H](Cc2ccc(O)cc2)NC(=O)CSC[C@@H](C(=O)NCC(=O)N[C@@H](CO)C(=O)NCCC(=O)NCCC(=O)N[C@@H](CCCNC(=N)N)C(=O)N[C@@H](CCCCNC(=O)c2ccc3c(c2)C(=O)OC32c3ccc(O)cc3Oc3cc(O)ccc32)C(N)=O)NC(=O)[C@H]([C@@H](C)O)NC(=O)[C@H](CC(C)C)NC(=O)[C@H](CC(C)C)NC(=O)[C@H](C(C)C)NC(=O)[C@H](CC(C)C)NC1=O [CP13] ({CH2CO}-[dY]DPSANWILVLLTCGS[βAla][βAla]RK(5FAM)-NH2; thioether N-14; C-terminus assumed) | isolate intact TmrAB complexes
